Experiments:
[1] = biological target: T1, eEF2 (eukaryotic translational elongation factor 2) (Homo sapiens, UniProt P13639); assay: SPR (Biacore T200); type: binding; design: eEF2 protein immobilized on a CM5 chip
[2] = biological target: T1, eEF2 (eukaryotic translational elongation factor 2); assay: ITC (KD […]); also SPR (KD […]), CETSA in KYSE510 and […] T cells, GTPase-Glo inhibition of purified eEF2; type: binding; design: eEF2-3 × Flag purified from 293 T cells

Row | Structure (SMILES) | Kd [1] | Kd [2]
1 | O=C(NCCN1CCCC1)c1cc(-c2ccc(CN3CCOCC3)cc2)nc2ccc(F)cc12 [DDD107498] | 54.1 nM | 
2 | CC(=O)O[C@@H]1C[C@H](O)[C@@]23CO[C@@H](O)[C@]1(C)[C@@H]2C[C@@H](O)[C@]1(C)[C@@H]3C(=O)[C@H](OC(C)=O)[C@@]2(C)[C@H](c3ccoc3)C[C@H]3O[C@]321 [TSN, Toosendanin] |  | ~16.6 nM

Source: publication PMC10124032, “Toosendanin targeting eEF2 impedes Topoisomerase I & II protein translation to suppress esophageal squamous cell carcinoma growth” (Journal of Experimental & Clinical Cancer Research : CR, 2023)
